Source: patent US8871753B2, “Macrocyclic compounds and their use as kinase inhibitors” (Incyte Corporation, priority 2008, dated 2014)
Structures can show the parent of a compound that is named as a salt. Where two headings read alike, the source gives them in different places.

Columns and labels:
Type in all cases: biochemical
[1] = target: T1, human JAK1 (a.a. 837-1142) (Homo sapiens, UniProt P23458); assay: In vitro JAK kinase assay (HTRF, phosphorylation of a biotinylated peptide), JAK1; details: read-out: JAK1 IC50
T1 construct: human JAK1 (a.a. 837-1142); His tag (N); made in house; host or cells: insect cells (baculovirus)
Summary of the method: (§1)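 Kinase activity was measured as phosphorylation of a biotinylated peptide, with ATP at 90 μM for JAK1, 30 μM for JAK2 and 3 μM for JAK3. Reactions ran 1 hr at room temperature, were stopped with EDTA plus SA-APC and Eu-Py20, and were read by HTRF after 40 minutes of antibody binding.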

[2] = target: T2, human JAK2 (a.a. 828-1132) (Homo sapiens, UniProt O60674); assay: In vitro JAK kinase assay (HTRF, phosphorylation of a biotinylated peptide), JAK2
T2 construct: JAK2 (a.a. 828-1132); His tag (N); made in house; host or cells: insect cells (baculovirus)
Summary of the method: as §1

[3] = target: T3, human JAK3 (a.a. 781-1124) (Homo sapiens, UniProt P52333); assay: In vitro JAK kinase assay (HTRF, phosphorylation of a biotinylated peptide), JAK3
T3 construct: JAK3 (a.a. 781-1124); His tag (N); made in house; host or cells: insect cells (baculovirus)
Summary of the method: as §1

[4] = target: TYK2 (Homo sapiens, UniProt P29597); assay: TYK2 kinase inhibition (Table A1)
Sequence of TYK2 (P29597 whole entry): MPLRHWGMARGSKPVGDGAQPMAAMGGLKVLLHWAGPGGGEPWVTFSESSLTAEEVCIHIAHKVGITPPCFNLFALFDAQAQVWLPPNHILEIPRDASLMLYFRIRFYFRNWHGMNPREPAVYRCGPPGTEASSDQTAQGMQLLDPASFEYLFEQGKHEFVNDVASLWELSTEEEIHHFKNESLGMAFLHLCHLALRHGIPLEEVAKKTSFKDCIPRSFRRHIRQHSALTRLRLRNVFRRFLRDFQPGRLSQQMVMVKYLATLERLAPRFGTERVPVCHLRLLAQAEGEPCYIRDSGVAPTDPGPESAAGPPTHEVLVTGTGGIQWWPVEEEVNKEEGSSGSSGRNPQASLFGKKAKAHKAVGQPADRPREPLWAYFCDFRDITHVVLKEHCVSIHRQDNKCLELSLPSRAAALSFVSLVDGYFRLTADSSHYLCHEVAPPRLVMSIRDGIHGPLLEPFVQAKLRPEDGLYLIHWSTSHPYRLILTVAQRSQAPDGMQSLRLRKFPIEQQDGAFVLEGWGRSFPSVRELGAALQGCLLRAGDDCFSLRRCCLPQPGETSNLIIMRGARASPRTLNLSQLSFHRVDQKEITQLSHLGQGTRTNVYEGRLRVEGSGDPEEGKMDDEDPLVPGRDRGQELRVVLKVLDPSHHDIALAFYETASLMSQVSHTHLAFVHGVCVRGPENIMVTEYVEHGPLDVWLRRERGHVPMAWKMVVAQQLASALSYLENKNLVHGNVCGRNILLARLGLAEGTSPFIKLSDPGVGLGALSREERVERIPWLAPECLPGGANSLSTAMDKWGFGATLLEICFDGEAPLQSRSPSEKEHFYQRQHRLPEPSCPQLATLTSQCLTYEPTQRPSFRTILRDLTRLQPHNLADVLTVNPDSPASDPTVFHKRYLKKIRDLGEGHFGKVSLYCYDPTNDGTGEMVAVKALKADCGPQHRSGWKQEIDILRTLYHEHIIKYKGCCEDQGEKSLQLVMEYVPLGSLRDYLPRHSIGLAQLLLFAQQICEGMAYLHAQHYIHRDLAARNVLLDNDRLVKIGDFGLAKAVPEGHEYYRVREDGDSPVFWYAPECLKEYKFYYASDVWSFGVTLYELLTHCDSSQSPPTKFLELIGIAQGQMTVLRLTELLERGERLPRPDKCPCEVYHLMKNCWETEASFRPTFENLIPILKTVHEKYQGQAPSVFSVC

T2 sequence (O60674 828-1132): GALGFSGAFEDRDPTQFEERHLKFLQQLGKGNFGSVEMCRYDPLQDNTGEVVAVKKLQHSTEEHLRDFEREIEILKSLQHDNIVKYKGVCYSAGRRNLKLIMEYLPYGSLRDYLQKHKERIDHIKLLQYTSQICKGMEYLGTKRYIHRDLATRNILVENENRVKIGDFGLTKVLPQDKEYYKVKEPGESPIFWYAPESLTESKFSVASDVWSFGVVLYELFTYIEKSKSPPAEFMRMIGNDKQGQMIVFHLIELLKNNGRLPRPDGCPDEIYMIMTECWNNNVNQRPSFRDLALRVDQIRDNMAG
T1 sequence (P23458 849-1154): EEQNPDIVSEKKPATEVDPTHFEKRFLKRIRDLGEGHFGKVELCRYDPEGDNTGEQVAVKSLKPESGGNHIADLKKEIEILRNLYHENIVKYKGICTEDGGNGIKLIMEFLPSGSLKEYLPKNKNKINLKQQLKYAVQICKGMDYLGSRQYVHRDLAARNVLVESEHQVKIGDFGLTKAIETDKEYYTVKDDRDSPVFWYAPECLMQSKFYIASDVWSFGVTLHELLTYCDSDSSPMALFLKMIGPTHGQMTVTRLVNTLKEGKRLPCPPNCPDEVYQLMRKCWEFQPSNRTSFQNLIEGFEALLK
T3 sequence (P52333 781-1124): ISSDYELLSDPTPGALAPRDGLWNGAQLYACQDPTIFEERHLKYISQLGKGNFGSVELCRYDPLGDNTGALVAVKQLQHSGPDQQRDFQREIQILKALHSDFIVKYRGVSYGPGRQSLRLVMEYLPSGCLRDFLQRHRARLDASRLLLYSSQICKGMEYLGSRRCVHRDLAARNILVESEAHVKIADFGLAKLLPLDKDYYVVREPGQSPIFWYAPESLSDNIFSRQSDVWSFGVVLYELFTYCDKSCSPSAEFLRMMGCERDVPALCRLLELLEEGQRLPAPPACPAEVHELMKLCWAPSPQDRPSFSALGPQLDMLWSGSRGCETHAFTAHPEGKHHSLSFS

Cc1cc(C(=O)N2CCC(CC(=O)Nc3ccc4cc3CCc3cccc(c3)Nc3ncc(F)c(n3)N4)CC2)no1 [Example C52, N-[6-Fluoro-2,4,8,22-tetraazatetracyclo[14.3.1.1(3,7).1(9,13)]docosa-1(20),3(22),4,6,9(21),10,12,16,18-nonaen-12-yl]-2-{1-[(5-methylisoxazol-3-yl)carbonyl]piperidin-4-yl}acetamide trifluoroacetate]
IC50 [1]: > 0.2 µM
IC50 [2]: > 0.2 µM
IC50 [3]: > 0.2 µM
IC50 [4]: > 0.2 µM

O=C(CC1CN(c2nc3cccnc3o2)C1)Nc1ccc2cc1CCc1cncc(c1)Nc1ncc(Cl)c(n1)N2 [Example D141, N-[6-Chloro-2,4,8,18,22-pentaazatetracyclo[14.3.1.1(3,7).1(9,13)]docosa-1(20),3(22),4,6,9(21),10,12,16,18-nonaen-12-yl]-2-(1-[1,3]oxazolo[5,4-b]pyridin-2-ylazetidin-3-yl)acetamide tris(trifluoroacetate)]
IC50 ([1]; Table D1): 0.009 µM
IC50 ([2]; Table D1): 0.106 µM
IC50 ([3]; Table D1): > 1 µM
IC50 ([4]; Table D1): 0.262 µM

N#Cc1ccccc1N1CCN(C(=O)COc2ccc3cc2CCc2cncc(c2)Nc2ncc(Cl)c(n2)N3)CC1 [Example D235, 2-[4-({[6-Chloro-2,4,8,18,22-pentaazatetracyclo[14.3.1.1(3,7).1(9,13)]docosa-1(20),3(22),4,6,9(21),10,12,16,18-nonaen-12-yl]oxy}acetyl)piperazin-1-yl]benzonitrile tris(trifluoroacetate)]
IC50 ([1]; Table D1): 0.064 µM
IC50 ([2]; Table D1): > 0.4 µM
IC50 ([3]; Table D1): > 0.4 µM
IC50 ([4]; Table D1): > 0.4 µM

O=C(CC1CCN(c2nncs2)C1)Nc1ccc2cc1CCc1cncc(c1)Nc1ncc(Cl)c(n1)N2 (centres unmarked) [Example D155, N-[6-Chloro-2,4,8,18,22-pentaazatetracyclo[14.3.1.1(3,7).1(9,13)]docosa-1(20),3(22),4,6,9(21),10,12,16,18-nonaen-12-yl]-2-[1-(1,3,4-thiadiazol-2-yl)pyrrolidin-3-yl]acetamide tris(trifluoroacetate)]
IC50 ([1]; Table D1): 0.029 µM
IC50 ([2]; Table D1): 0.12 µM
IC50 ([3]; Table D1): > 0.4 µM
IC50 ([4]; Table D1): > 0.4 µM

O=C(C[C@@H]1CCN(C(=O)Nc2ccccc2F)C1)Nc1ccc2cc1CCc1cncc(c1)Nc1ncc(Cl)c(n1)N2 [Example D135, (3S)-3-(2-{[6-Chloro-2,4,8,18,22-pentaazatetracyclo[14.3.1.1(3,7).1(9,13)]docosa-1(20),3(22),4,6,9(21),10,12,16,18-nonaen-12-yl]amino}-2-oxoethyl)-N-(2-fluorophenyl)pyrrolidine-1-carboxamide bis(trifluoroacetate)]
IC50 ([1]; Table D1): 0.06 µM
IC50 ([2]; Table D1): 0.314 µM
IC50 ([3]; Table D1): > 1 µM
IC50 ([4]; Table D1): > 1 µM

Cc1ccnc(N2CCN(C(=O)COc3ccc4cc3CCc3cncc(c3)Nc3ncc(Cl)c(n3)N4)CC2)c1 [Example D237, 6-Chloro-12-{2-[4-(4-methylpyridin-2-yl)piperazin-1-yl]-2-oxoethoxy}-2,4,8,18,22-pentaazatetracyclo[14.3.1.1(3,7).1(9,13)]docosa-1(20),3(22),4,6,9(21),10,12,16,18-nonaene tris(trifluoroacetate)]
IC50 ([1]; Table D1): 0.029 µM
IC50 ([2]; Table D1): 0.18 µM
IC50 ([3]; Table D1): > 0.4 µM
IC50 ([4]; Table D1): > 0.4 µM

Cc1cc(C(=O)N2CC(CC(=O)Nc3ccc4cc3CCc3cncc(c3)Nc3ncc(Cl)c(n3)N4)C2)no1 [Example D143, N-[6-Chloro-2,4,8,18,22-pentaazatetracyclo[14.3.1.1(3,7).1(9,13)]docosa-1(20),3(22),4,6,9(21),10,12,16,18-nonaen-12-yl]-2-{1-[(5-methylisoxazol-3-yl)carbonyl]azetidin-3-yl}acetamide bis(trifluoroacetate)]
IC50 ([1]; Table D1): 0.026 µM
IC50 ([2]; Table D1): 0.132 µM
IC50 ([3]; Table D1): > 1 µM
IC50 ([4]; Table D1): 0.304 µM

O=C(COc1ccc2cc1CCc1cncc(c1)Nc1ncc(Cl)c(n1)N2)N1CCN(C(=O)C2CCCO2)CC1 (centres unmarked) [Example D272, 6-Chloro-12-{2-oxo-2-[4-(tetrahydrofuran-2-ylcarbonyl)piperazin-1-yl]ethoxy}-2,4,8,18,22-pentaazatetracyclo[14.3.1.1(3,7).1(9,13)]docosa-1(20),3(22),4,6,9(21),10,12,16,18-nonaene bis(trifluoroacetate)]
IC50 ([1]; Table D1): 0.038 µM
IC50 ([2]; Table D1): 0.288 µM
IC50 ([3]; Table D1): > 0.4 µM
IC50 ([4]; Table D1): > 0.4 µM

O=C(COc1ccc2cc1CCc1cncc(c1)Nc1ncc(Cl)c(n1)N2)N1CCC(c2nc(-c3cccs3)no2)CC1 [Example D258, 6-Chloro-12-(2-oxo-2-{4-[3-(2-thienyl)-1,2,4-oxadiazol-5-yl]piperidin-1-yl}ethoxy)-2,4,8,18,22-pentaazatetracyclo[14.3.1.1(3,7).1(9,13)]docosa-1(20),3(22),4,6,9(21),10,12,16,18-nonaene bis(trifluoroacetate)]
IC50 ([1]; Table D1): 0.07 µM
IC50 ([2]; Table D1): 0.113 µM
IC50 ([3]; Table D1): > 0.4 µM
IC50 ([4]; Table D1): > 0.4 µM

O=C(Cn1c(=O)oc2c3cc(cc21)Nc1nc(ncc1Cl)Nc1cccc(c1)CC3)N1CCN(c2ccccc2)CC1 [Example D188, 4-Chloro-20-[2-oxo-2-(4-phenylpiperazin-1-yl)ethyl]-18-oxa-2,6,8,20,25-pentaazapentacyclo[14.6.1.1(3,7).1(9,13).0(17,21)]pentacosa-1(23),3(25),4,6,9(24),10,12,16,21-nonaen-19-one bis(trifluoroacetate)]
IC50 ([1]; Table D1): 0.032 µM
IC50 ([2]; Table D1): 0.032 µM
IC50 ([3]; Table D1): 0.079 µM
IC50 ([4]; Table D1): > 1 µM

O=C(C[C@@H]1CCCN(C(=O)c2ccccc2)C1)Nc1ccc2cc1CCc1cncc(c1)Nc1ncc(Cl)c(n1)N2 [Example D206, 2-[(3S)-1-Benzoylpiperidin-3-yl]-N-[6-chloro-2,4,8,18,22-pentaazatetracyclo[14.3.1.1(3,7).1(9,13)]docosa-1(20),3(22),4,6,9(21),10,12,16,18-nonaen-12-yl]acetamide bis(trifluoroacetate)]
IC50 ([1]; Table D1): 0.0092 µM
IC50 ([2]; Table D1): 0.014 µM
IC50 ([3]; Table D1): 0.147 µM
IC50 ([4]; Table D1): 0.013 µM

O=C(Cc1csc2ccccc12)Nc1ccc2cc1CCc1cccc(c1)Nc1ncc(Cl)c(n1)N2 [Example C35, 2-(1-Benzothien-3-yl)-N-[6-chloro-2,4,8,22-tetraazatetracyclo[14.3.1.1(3,7).1(9,13)]docosa-1(20),3(22),4,6,9(21),10,12,16,18-nonaen-12-yl]acetamide trifluoroacetate]
IC50 [1]: 0.232 µM
IC50 [2]: 0.203 µM
IC50 [3]: > 10 µM
IC50 [4]: 0.549 µM

N#Cc1ccccc1S(=O)(=O)N1CCC(CCOc2ccc3cc2CCc2cncc(c2)Nc2ncc(Cl)c(n2)N3)CC1 [Example D163, 2-{[4-(2-{[6-Chloro-2,4,8,18,22-pentaazatetracyclo[14.3.1.1(3,7).1(9,13)]docosa-1(20),3(22),4,6,9(21),10,12,16,18-nonaen-12-yl]oxy}ethyl)piperidin-1-yl]sulfonyl}benzonitrilebis(trifluoroacetate)]
IC50 ([1]; Table D1): 0.19 µM
IC50 ([2]; Table D1): > 0.4 µM
IC50 ([3]; Table D1): > 0.4 µM
IC50 ([4]; Table D1): > 0.4 µM

CCS(=O)(=O)N1CCN(C(=O)COc2ccc3cc2CCc2cncc(c2)Nc2ncc(Cl)c(n2)N3)CC1 [Example D263, 6-Chloro-12-{2-[4-(ethylsulfonyl)piperazin-1-yl]-2-oxoethoxy}-2,4,8,18,22-pentaazatetracyclo[14.3.1.1(3,7).1(9,13)]docosa-1(20),3(22),4,6,9(21),10,12,16,18-nonaene bis(trifluoroacetate)]
IC50 ([1]; Table D1): 0.08 µM
IC50 ([2]; Table D1): 0.18 µM
IC50 ([3]; Table D1): > 0.4 µM
IC50 ([4]; Table D1): > 0.4 µM
